# Tested on: HCV Replicon IB
# Experiment: HCV replicon assay in Huh-7 cells, genotype 1b (Rluc luciferase readout)
# Format: cell-based, hepatitis C virus
# Conditions: Hepatitis C virus, 72 h; 10 uM; 1b-Rluc replicon, Huh-7 cells, 3 days; read-out: Inhibition @ 10 uM in 1b-Rluc
row,SMILES,inhibition at 10 µM [%]
1,"Cc1cc(C(=O)NC[C@H]2CCCN2)nc2c(C(F)(F)F)cc(C3CC3)cc12 (single isomer, unassigned) [Compound 113]",96.2
2,"COC1CN[C@H](CNC(=O)c2cc(C)c3cc(C4CC4)cc(C(F)(F)F)c3n2)C1 (single isomer, unassigned) [Compound 127]",99.7
3,"O=C(NC[C@@H]1C[C@@H](F)CN1)c1cc(Cl)c2cc(OC(F)F)cc(C(F)(F)F)c2n1 (single isomer, unassigned) [Compound 199]",98.1
4,"Cc1cc(C(=O)NC[C@@H]2CC(F)(F)CCN2)nc2c(C(F)(F)F)cc(OC(F)F)cc12 (single isomer, unassigned) [Compound 202]",99.5
5,"O=C(NC[C@@H]1CC(F)(F)CCN1)c1cc(Cl)c2cc(OC(F)F)cc(C(F)(F)F)c2n1 (single isomer, unassigned) [Compound 203]",98.3
6,Cc1cc(C(=O)NCc2ccccn2)nc2c(C(F)(F)F)cc(C3CC3)cc12 [Compound 79],100
7,Cc1cc(C(=O)NCc2cccc(F)n2)nc2c(C(F)(F)F)cc(C3CC3)cc12 [Compound 80],99.8
8,Cc1cc(C(=O)NCC2CCCCO2)nc2c(C(F)(F)F)cc(C3CC3)cc12 (stereo not drawn) [Compound 81],100
9,Cc1cc(C(=O)NCC2OCCCO2)nc2c(C(F)(F)F)cc(C3CC3)cc12 [Compound 82],100
10,Cc1cccc(CNC(=O)c2cc(C)c3cc(C4CC4)cc(C(F)(F)F)c3n2)n1 [Compound 83],99.4
11,Cc1cccnc1CNC(=O)c1cc(C)c2cc(C3CC3)cc(C(F)(F)F)c2n1 [Compound 84],99
12,Cc1ccc(CNC(=O)c2cc(C)c3cc(C4CC4)cc(C(F)(F)F)c3n2)nc1 [Compound 85],100
13,Cc1cc(C(=O)NCc2cc(C(F)(F)F)ccn2)nc2c(C(F)(F)F)cc(C3CC3)cc12 [Compound 86],100
14,Cc1cc(C(=O)NCC2(NC(=O)OC(C)(C)C)CC2)nc2c(C(F)(F)F)cc(C3CC3)cc12 [Compound 87],84.5
15,Cc1cc(C(=O)NCC2(N)CC2)nc2c(C(F)(F)F)cc(C3CC3)cc12 [Compound 88],95.6
16,Cc1cc(C(=O)NCc2cnccn2)nc2c(C(F)(F)F)cc(C3CC3)cc12 [Compound 89],100
17,Cc1cc(C(=O)NCc2ncccn2)nc2c(C(F)(F)F)cc(C3CC3)cc12 [Compound 90],100
18,Cc1cc(C(=O)NCC2CCCC(=O)N2)nc2c(C(F)(F)F)cc(C3CC3)cc12 (stereo not drawn) [Compound 91],92.7
19,Cc1cc(C(=O)NC[C@H]2CCCO2)nc2c(C(F)(F)F)cc(C3CC3)cc12 [Compound 92],100
20,Cc1cc(C(=O)NCC(C)(C)O)nc2c(C(F)(F)F)cc(C3CC3)cc12 [Compound 93],99
21,Cc1cc(C(=O)NCC2(O)CCCC2)nc2c(C(F)(F)F)cc(C3CC3)cc12 [Compound 94],99.9
22,CCC(=O)CNC(=O)c1cc(C)c2cc(C3CC3)cc(C(F)(F)F)c2n1 [Compound 95],100
23,Cc1cc(C(=O)NCC2OCCO2)nc2c(C(F)(F)F)cc(C3CC3)cc12 [Compound 96],99.9
24,Cc1cc(C(=O)NCC2(O)CC2)nc2c(C(F)(F)F)cc(C3CC3)cc12 [Compound 97],98.8
25,Cc1cc(C(=O)NCC2(C)OCCO2)nc2c(C(F)(F)F)cc(C3CC3)cc12 [Compound 98],98.1
26,Cc1cc(C(=O)NCC2COCCN2)nc2c(C(F)(F)F)cc(C3CC3)cc12 (stereo not drawn) [Compound 100],99.5

row,SMILES,inhibition at 10 µM [%]
1,CC(=O)N1CCOCC1CNC(=O)c1cc(C)c2cc(C3CC3)cc(C(F)(F)F)c2n1 (stereo not drawn) [Compound 101],73.3
2,Cc1cc(C(=O)NCC2CC2)nc2c(C(F)(F)F)cc(C3CC3)cc12 [Compound 102],99.7
3,Cc1cc(C(=O)NCC2(C)COC2)nc2c(C(F)(F)F)cc(C3CC3)cc12 [Compound 103],96.1
4,Cc1cc(C(=O)NCCC#N)nc2c(C(F)(F)F)cc(-c3ccccc3)cc12 [Compound 104],70.3
5,Cc1cc(C(=O)NCC#N)nc2c(C(F)(F)F)cc(-c3ccccc3)cc12 [Compound 105],82.8
6,Cc1cc(C(=O)NCCC2OCCO2)nc2c(C(F)(F)F)cc(C3CC3)cc12 [Compound 106],99.7
7,Cc1cc(C(=O)NCC2CCCCN2C(=O)OC(C)(C)C)nc2c(C(F)(F)F)cc(C3CC3)cc12 (stereo not drawn) [Compound 107],94.5
8,Cc1cc(C(=O)NCC2CCCCN2)nc2c(C(F)(F)F)cc(C3CC3)cc12 (stereo not drawn) [Compound 108],96.5
9,Cc1cc(C(=O)NCc2cc(C#N)ccn2)nc2c(C(F)(F)F)cc(C3CC3)cc12 [Compound 110],99.9
10,Cc1cc(C(=O)NCc2ccc(C#N)cn2)nc2c(C(F)(F)F)cc(C3CC3)cc12 [Compound 112],99.7
11,CNC(=O)CNC(=O)c1cc(C)c2cc(C3CC3)cc(C(F)(F)F)c2n1 [Compound 116],97.2
12,COCCNC(=O)CNC(=O)c1cc(C)c2cc(C3CC3)cc(C(F)(F)F)c2n1 [Compound 117],94.7
13,COCCCNC(=O)CNC(=O)c1cc(C)c2cc(C3CC3)cc(C(F)(F)F)c2n1 [Compound 118],84.5
14,COCCNC(=O)c1cc(C)c2cc(C3CC3)cc(C(F)(F)F)c2n1 [Compound 119],99.5
15,COCCCNC(=O)c1cc(C)c2cc(C3CC3)cc(C(F)(F)F)c2n1 [Compound 120],99.8
16,Cc1cc(C(=O)NCCCO)nc2c(C(F)(F)F)cc(C3CC3)cc12 [Compound 121],99.2
17,Cc1cc(C(=O)NCCCN2CCOCC2)nc2c(C(F)(F)F)cc(C3CC3)cc12 [Compound 122],97.2
18,CNCCCNC(=O)c1cc(C)c2cc(C3CC3)cc(C(F)(F)F)c2n1 [Compound 123],96.7
19,Cc1cc(C(=O)NCCC2CCCCN2)nc2c(C(F)(F)F)cc(C3CC3)cc12 (stereo not drawn) [Compound 124],99.2
20,Cc1cc(C(=O)NCC2CCN2)nc2c(C(F)(F)F)cc(C3CC3)cc12 (stereo not drawn) [Compound 125],95.2
21,Cc1cc(C(=O)NCCCN2CC(O)C2)nc2c(C(F)(F)F)cc(C3CC3)cc12 [Compound 126],90.1
22,Cc1cc(C(=O)NC[C@H]2CC(F)(F)CN2)nc2c(C(F)(F)F)cc(C3CC3)cc12 [Compound 128],99.4
23,Cc1cc(C(=O)NCCNc2ccccn2)nc2c(C(F)(F)F)cc(C3CC3)cc12 [Compound 129],94.9
24,Cc1cc(C(=O)NCc2cc(CN3CCOCC3)ccn2)nc2c(C(F)(F)F)cc(C3CC3)cc12 [Compound 130],84.7
25,Cc1cc(C(=O)NC[C@@H]2CC(F)(F)CCN2)nc2c(C(F)(F)F)cc(C3CC3)cc12 [Compound 132],100

# Same assay, conditions: Hepatitis C virus, Huh-7, 72 h, HCV1B replicon, Huh-7 cells, 3 days; read-out: EC50_HCV1B_
row,SMILES,EC50 [nM]
1,Cc1cc(-c2nnc(N[C@H]3CC[C@@](C)(O)C3)o2)nc2c(C(C)(C)C)cc(OCC(F)(F)F)cc12 (racemic) [Compound 474],1.02
2,Cc1cc(-c2nnc(N[C@H]3CC[C@@H](O)C3)o2)nc2c(C(C)(C)C)cc(OCC(F)(F)F)cc12 (racemic) [Compound 476],1.32
3,Cc1cc(-c2nnc(N[C@H]3CC[C@H](O)C3)o2)nc2c(C(C)(C)C)cc(OCC(F)(F)F)cc12 (racemic) [Compound 477],2.22

# Reference: patent US20120053148A1, “INHIBITORS OF HEPATITIS C VIRUS” (GILEAD SCIENCES, INC., priority 2010, published 2012)
